Laboratory results as given in patent US20260070946A1, “TYR PEPTIDE COMPOSITIONS AND METHODS FOR USE” (UNIVERSITY OF MIAMI, priority 2022, published 2026).
Read-outs that look alike come from different tables or passages of the source. Residues, ends and D or L forms follow the SMILES beside them. No end group written: not given here.

Columns and labels:
[1] = tested on: HT1080 cells; test: Rapid cell proliferation assay, HT1080, cyclic versus non-cyclic TPA; format: cell-based; conditions: 40 μg/ml
Experimental: Rapid cell proliferation assay was carried out using a Rapid Cell Proliferation Kit, EMD Biosciences (QIA127) (Galoian K, Tumor Biology 32 (4): 745-51, 2011). Cells were seeded at 5×10^4 cells/100 μl culture in the multi-well plate and incubated overnight at 37° C. in 5% CO2 incubator. The actual assay was performed the next day. The rapid cell proliferation assay is based on the activity of mitochondrial enzymes active in viable cells. PRP-1 was added to corresponding wells just after seeding, before overnight incubation. The colorimetric 96-well assay measures colorful product like formazan because of WST-1 tetrazolium salt cleavage by the mitochondrial dehydrogenases. The formazan formation is then quantified by measuring the change in absorbance at 450 nm in a microplate reader. The activity of mitochondrial dehydrogenases is proportional to cell number. No washing, harvesting, or solubilization steps are required. In this series of experiments, PRP-1 was added to corresponding wells immediately after seeding and cell attachment followed by overnight incubation according to the manufacturer's instructions.
The cyclic version was created to protect the peptide from being degraded by proteases in vivo. The cyclic peptide was tested for its potency in a rapid cell proliferation assay using HT1080 cells as described above using 40 μg/ml TPA or cyclic TPA in the assay.

[2] = tested on: HT1080 fibrosarcoma cells; test: Survival experiment with HT1080 cells derived from doxorubicin relapsed mice; format: in vivo
Experimental: Additional survival experiments were undertaken. HT1080 fibrosarcoma cells were used in this experiment that derived from doxorubicin relapsed mice. The cells from tumor were excised as single cell suspension for quick isolation from tissue for subsequent luminescent labeling, then they were cultured in vitro and re-transplanted.

[3] = tested on: MDA 231 (ER-) breast cell carcinoma cells; conditions: cited from earlier work
[4] = tested on: T47-D (ER+) cells; conditions: cited from earlier work
[5] = tested on: HT1080 cells; format: cell-based, human
From the text: Analysis of anti-proliferative activity in HT1080 cells was examined.

[6] = tested on: 3D fibrosarcoma spheroids; test: Self-renewal assay with 3D fibrosarcoma; format: cell-based
[7] = tested on: osteosarcoma cell line MNNG; test: Rapid cell proliferation assay, MNNG; format: cell-based; conditions: only the highest dose of 40 μg/ml, 48 hours
Experimental: (§1) The effects of TPA on three osteosarcoma cell lines OSA, KHOS, MNNG was analyzed (FIG. 11). Rapid cell proliferation was measured by a Rapid Cell Proliferation Kit, EMD Biosciences (QIA127). Cells were seeded at 5×10^4 cells/100 μl culture in a multi-well plate and incubated overnight at 37° C. in 5% CO2 incubator. The actual assay was performed the next day. The rapid cell proliferation assay is based on the activity of mitochondrial enzymes active in viable cells. TPA was added to corresponding wells just after seeding, and before overnight incubation. The 96-well assay measures colorimetric product like formazan because of WST-1 tetrazolium salt cleavage by the mitochondrial dehydrogenases. TPA exerted its effect in all cell lines 48 hours after the incubation. […] (FIG. 11)

[8] = tested on: HT1080 fibrosarcoma; test: HT1080 fibrosarcoma nude mice model (IVIS, tumor volume, tumor weight); format: in vivo
Experimental: A nude mice model was used in which animals receive orthotopic inoculation of highly metastatic JJ012 chondrosarcoma or HT1080 fibrosarcoma tumor cell lines or primary cell lines labeled with extremely red bright fluorescent protein PTDT-N1.
Disease progression is evaluated through clinical signs and animal-relevant responses, tumor size analysis, real-time fluorescence and bioluminescence imaging (IVIS) of both in vivo and ex vivo disease-specific tumor microenvironments and lung metastases.
Monitoring of the solid tumors is as follows (when visible, tumors will be measured by noninvasive imaging or caliper at least weekly). Experimental endpoints depend on the site of transplantation. Mice are euthanized before they reach a tumor volume of 2 cm^3 for a single or multiple tumors. The overriding consideration for humane endpoints of these oncological experiments will be the overall health of the animal. Animals are weighed at least once a week for fast growing tumors (reaching endpoint before 3 months after transplantation) and at least once a month for slow growing tumors. Any tumor-bearing animal are euthanized immediately if the tumor impairs ambulation or eating. […] Animals bearing tumors in such locations are euthanized before the tumors reach the above-stated dimensions.
Tumor-bearing mice are photographed either at the experimental endpoint or using noninvasive imaging technologies to monitor tumor progression. Also contemplated is imaging in vivo for evidence of tumor progression (BLI, IVIS), and observance of clinical signs of metastases (listlessness, weight loss, or hunched posture). Tumors and lungs are harvested to confirm presence of lung metastases and further analyzed: tumors are weighed, photographed, and sectioned into samples designated half for 10% formalin fixation analysis or half for snap-freeze in liquid nitrogen for future analysis.

[9] = tested on: cardiomyocyte cell line AC16; test: Cardiotoxicity in cardiomyocyte cell line AC16; format: cell-based; conditions: 24 hours; TPA 40 μg/mL, Doxo 2 mM
Experimental: Cardiotoxicity results of TPA, Doxo and TPA+Doxo combo were analyzed in cardiomyocyte cell line AC16. Cells were treated 24 hours with C (control, DMSO 0.5%), TPA (40 μg/mL), Doxo (Doxorubicin, 2 mM), and TPA (40 μg/mL)+Doxo (2 mM). (FIG. 10). […] Thus, overall survival increases observed in vivo should be attributed to TPA's ability to target and eliminate cancer stem cells.

[10] = tested on: fibrosarcoma spheroids; test: Neutral red cytotoxicity assay; format: cell-based
[11] = tested on: Nanog; test: Nanog mRNA expression in 3D HT1080 lysates; format: cell-based; conditions: 3D lysates, TPA 20 μg/mL
From the text: (§2) Experiments herein (FIG. 13) indicated there was statistically significant inhibition in 3DHT1080 cell line for EZH2, and its targets, embryonic transcription factor Nanog (Villasante et al., Cell Cycle. 10 (9): 1488-498, 2011), and cancer stem cell marker […], ALDH1A1 (Li et al., Cancer Prev Res (Phila). 25 (3): 484-491 2012). Aldehyde dehydrogenase (ALDH) is an established marker of CSCs in several neoplasms. Cells expressing high levels of ALDH have been isolated in a number of human sarcoma cell lines, including the human chondrosarcoma SW 1353 cell line (Lohberger et al., PLOS One 7).

[12] = tested on: osteosarcoma cell line KHOS; test: Rapid cell proliferation assay, KHOS; format: cell-based; conditions: 48 h
Experimental: as §1

[13] = tested on: HOXC13 proteins; test: Inhibition of HOXC13 proteins
[14] = tested on: chondrosarcoma and fibrosarcoma
[15] = tested on: ALDHA; test: ALDHA mRNA expression in 3D HT1080 lysates; format: cell-based; conditions: 3D lysates, TPA 20 μg/mL
From the text: as §2

[16] = Acute and cumulative toxicity in mice
[17] = tested on: Nanog protein; test: Nanog protein expression in 3D HT1080 cells, western blot; format: cell-based; conditions: 40 μg/ml
[18] = mouse, in vivo
[19] = tested on: EZH2; test: EZH2 mRNA expression in 3D HT1080 lysates; format: cell-based; conditions: 3D lysates, TPA 20 μg/mL
From the text: as §2

## CC(C)C[C@@H]1NC(=O)[C@H](CCC(=O)O)NC(=O)[C@@H]2CCCN2C(=O)[C@H](CC(=O)O)NC(=O)[C@H](C)NC(=O)[C@@H]2CCCN2C(=O)CNC(=O)[C@H](CCCCN)NC(=O)[C@@H]2CCCN2C(=O)[C@H](CCC(=O)O)NC(=O)[C@@H]2CCCN2C(=O)[C@H]([C@@H](C)O)NC(=O)[C@H](CCC(=O)O)NC(=O)[C@H](CO)NC(=O)[C@H](Cc2ccc(OP(=O)(O)O)cc2)NC1=O [cyclic TPA, Cyclo(Ser-Glu-Thr-Pro-Glu-Pro-Lys-Gly-Pro-Ala-Asp-Pro-Glu-Leu-Tyr (PO3H2))] (HELM PEPTIDE1{A.D.P.E.L.[O=C([C@H](Cc1ccc(OP(=O)(O)O)cc1)N[*:1])[*:2]].S.E.T.P.E.P.K.G.P}$PEPTIDE1,PEPTIDE1,1:R1-15:R2$$$V2.0)
[1]
  improvement over non-cyclic TPA: ~1.5 fold
  inhibition of cell growth compared to control: over 50%

## COc1cccc2c1C(=O)c1c(O)c3c(c(O)c1C2=O)C[C@@](O)(C(=O)CO)C[C@@H]3O[C@H]1C[C@H](N)[C@H](O)[C@H](C)O1 [doxorubicin]
[2]; 10 mice per group, control (PBS) 21 days
  median survival: 28 days
[2]; mice re-transplanted with cells from doxorubicin relapsed tumors
  overall Median Survival advantage: 33%

## AGAPEPAEPAQPGVY [PRP-1]
[3]; 0.5 μg/ml PRP-1
  inhibition of cell growth: 71%
[3]; 1 μg/ml PRP-1
  inhibition of cell growth: 63%
[3]; 10 μg/ml
  inhibition of cell growth: 44%
[4]
  inhibitory effect on cell growth: no inhibitory effect

## SETPEPKGPADPELY [TPA 1, SETPEPKGPADPELY]
[5]
  IC50, anti-proliferative activity: 21 µg/mL
[5]; HT1080 human fibrosarcoma, dose response
  concentration of maximum effect: 40 µg/mL
[5]; visual, maximum effect with 40 μg/ml
  effect on cancer stem cell spheroids: destruction of cancer stem cell spheroids in dose response manner

## SETPEPKGPADPELY [TPA, SETPEPKGPADPELY]
[6]; 20 μg/ml
  effect on spheroids in comparison to not treated control: destruction and shrinkage of the spheroid
  viability of the shrunken spheroids by viability assay: non viable
[6]; 40 μg/ml
  spheroid formation: completely prevented spheroid formation
[7]
  growth inhibition: inhibited growth
[8]; by day 18
  tumor volume versus Control: trend toward decreased tumor volume
[8]; day after Day 14
  tumor weights at necropsy versus Control: no difference in tumor weights
[8]; through Day 14, IVIS % Growth p<0.001
  IVIS tumor growth compared to Control: decreased growth
[9]
  cytotoxicity in cardiomyocytes: did not show any toxicity
[10]; 40 μg/ml
  cytotoxic effect relative to doxorubicin (DO): almost that in cytotoxic doxorubicin
[10]; increased concentration of TPA peptide
  viability of fibrosarcoma spheroids: dose response decrease in viability
[11]
  Nanog mRNA fold decrease versus control: 7.69 fold
[11]; normalized to GAPDH mRNA
  reduced expression of Nanog: 87%
[12]
  growth inhibition: 40%
[13]
  inhibition of HOXC13 proteins: inhibits in a statistically significant manner
[14]
  inhibition of chondrosarcoma and fibrosarcoma growth: 80-90%
[15]
  ALDHA mRNA fold decrease versus control: 3.22 fold
[15]; normalized to GAPDH mRNA
  reduced expression of ALDHA: 69%
[16]; following 14 days of TPA treatment
  cumulative toxicity: no cumulative toxicity
[16]; up to 100 mg/kg
  acute toxicity (change in weight or behavior): No acute toxicity
[17]
  inhibition of Nanog protein in comparison with control: 47%
[18]
  blood count and chemistry: no change in blood count and chemistry
[19]
  EZH2 mRNA fold decrease versus control: 5 fold
[19]; normalized to GAPDH mRNA
  reduced expression of EZH2: 80%
